The text below walks through data of US8980830B2 (priority 2007, dated 2015).

Test [1] concerns the target Glucagon Receptor (Homo sapiens, UniProt P47871). The test is described as follows: cAMP inhibition: antagonism of glucagon-induced cAMP at glucagon receptor. Set-up: expressed in transfected cells; host or cells: HEK293. Type of test: cell-based.
Test [2] deals with GLP-1 Receptor (Homo sapiens, UniProt P43220). The experiment in a line: Functional assay, cAMP induction (luciferase reporter, HEK293) at GLP-1 receptor. The test is classed as cell-based. On the technique in general: In a reporter assay the amount or activity of a reporter protein is the signal.
[3] abbreviates: Glucagon antagonism IC50 (nM, inhibit 0.2-0.8 nM glucagon), Table 17.
[4] abbreviates: Glucagon antagonism IC50 (nM, inhibit 0.2-0.8 nM glucagon), Table 18.
Setting [5] is: GLP-1 agonism EC50 (nM), Table 17.

“And” between values parts separate entries of the source, which are not always exact repeats. Identical values can stand only once. Like-named read-outs stand apart in the source and are kept apart here. Bridge positions count the residues as written; N and C are the ends. Square brackets hold non-standard residues; d marks the D form. Ends that are not written are not given here. Peptide text beside a SMILES is read from it. * marks the point of attachment. X1 = CC(C)CCC[C@@H](C)[C@H]1CC[C@H]2[C@@H]3CC=C4C[C@@H](OC(=O)CCOCCOCCOCCOCCOCCOCCOCCOCCOCCOCCOCCOCCNC(=O)CSCCC(=O)*)CC[C@]4(C)[C@H]3CC[C@]12C; PhLac = O=C(O)[C@@H](O)Cc1ccccc1

Glucagon Receptor, sequence (P47871 26-477): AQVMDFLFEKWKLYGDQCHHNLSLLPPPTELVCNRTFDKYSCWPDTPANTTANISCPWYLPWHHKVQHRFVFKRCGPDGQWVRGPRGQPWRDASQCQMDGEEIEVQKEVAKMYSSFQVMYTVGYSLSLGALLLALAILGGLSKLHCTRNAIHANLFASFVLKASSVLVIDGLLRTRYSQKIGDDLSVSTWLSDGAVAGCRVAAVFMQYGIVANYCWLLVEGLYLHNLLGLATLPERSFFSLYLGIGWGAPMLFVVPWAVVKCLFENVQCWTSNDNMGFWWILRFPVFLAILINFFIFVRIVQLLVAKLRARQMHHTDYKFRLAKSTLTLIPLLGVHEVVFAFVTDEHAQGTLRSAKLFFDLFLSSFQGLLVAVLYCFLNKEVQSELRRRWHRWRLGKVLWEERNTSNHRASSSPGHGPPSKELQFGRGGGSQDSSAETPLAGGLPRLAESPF
GLP-1 Receptor, sequence (P43220 24-463): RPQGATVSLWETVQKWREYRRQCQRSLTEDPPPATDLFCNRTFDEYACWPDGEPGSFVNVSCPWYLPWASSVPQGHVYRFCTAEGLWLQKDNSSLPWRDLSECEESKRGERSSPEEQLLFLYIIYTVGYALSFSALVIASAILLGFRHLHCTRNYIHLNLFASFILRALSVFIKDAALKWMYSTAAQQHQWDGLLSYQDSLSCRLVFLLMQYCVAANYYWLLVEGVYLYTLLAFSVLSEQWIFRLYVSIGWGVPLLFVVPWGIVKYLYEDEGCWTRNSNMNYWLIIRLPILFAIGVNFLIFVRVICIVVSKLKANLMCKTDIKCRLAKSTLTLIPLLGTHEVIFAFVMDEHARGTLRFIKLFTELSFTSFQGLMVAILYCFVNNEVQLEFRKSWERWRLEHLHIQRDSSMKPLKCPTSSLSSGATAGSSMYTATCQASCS

For orientation: EC50 means the concentration that produces a half-maximal response. For `CSCC[C@H](NC(=O)[C@H](CC(C)C)NC(=O)[C@H](Cc1c[nH]c2ccccc12)NC(=O)[C@H](CCC(N)=O)NC(=O)[C@@H](NC(=O)[C@H](Cc1ccccc1)NC(=O)[C@H](CC(=O)O)NC(=O)[C@@H]1CCCCNC(=O)CC[C@H](NC(=O)[C@H](CC(=O)O)NC(=O)[C@H](CC(C)C)NC(=O)[C@H](Cc2ccc(O)cc2)NC(=O)[C@H](CCCCN)NC(=O)[C@H](CO)NC(=O)[C@H](Cc2ccc(O)cc2)NC(=O)[C@H](CC(=O)O)NC(=O)[C@H](CO)NC(=O)[C@@H](NC(=O)[C@@H](O)Cc2ccccc2)[C@@H](C)O)C(=O)N[C@@H](CCCNC(=N)N)C(=O)N[C@@H](CCCNC(=N)N)C(=O)N[C@@H](C)C(=O)N1)C(C)C)C(=O)N[C@@H](CC(=O)O)C(=O)N[C@H](C(N)=O)[C@@H](C)O` [[PLA6, D9, E16K20(lactam), D28]G(6-29)] (H-[PhLac]TSDYSKYLDERRAKDFVQWLMDT-NH2; lactam 11-15), the IC50 was 10 to 30 nM in test [1] (Glucagon IC50 (nM), Table 14); 5 to 27 nM in test [1] (Glucagon antagonism IC50(nM) (inhibit 0.2-0.8 nM glucagon), Table 21); 5 to 27 nM in test [1] (Glucagon antagonism IC50 (nM, inhibit 0.4 nM glucagon), Table 22); 13.7 ± 1.2 nM in test [1] (Glucagon antagonism IC50 (nM, inhibit 0.8 nM glucagon), Table 19); 11.7 ± 2.8 nM in test [1] (setting [3]); 5.5 nM in test [1] (setting [4]). Further, the EC50 in test [2] (GLP-1 EC50 (nM), Table 14) is 5 to 25 nM; in test [2] (setting [5]), 6.9 nM and 4.2 nM; in test [2] (GLP-1 agonism EC50 (nM), Table 19), 10.6 ± 0.97 nM; in test [2] (GLP-1 agonism EC50 (nM), Table 21) it was 5 to 28 nM.
In test [1] (Glucagon antagonism IC50 (nM, inhibit 0.4 nM glucagon), Table 23, standard deviation in ( )), `CSCC[C@H](NC(=O)[C@H](CC(C)C)NC(=O)[C@H](Cc1c[nH]c2ccccc12)NC(=O)[C@H](CCC(N)=O)NC(=O)[C@@H](NC(=O)[C@H](Cc1ccccc1)NC(=O)[C@H](CC(=O)O)NC(=O)[C@@H]1CCCCNC(=O)CC[C@H](NC(=O)[C@H](CC(=O)O)NC(=O)[C@H](CC(C)C)NC(=O)[C@H](Cc2ccc(O)cc2)NC(=O)[C@H](CCCCN)NC(=O)[C@H](CO)NC(=O)[C@H](Cc2ccc(O)cc2)NC(=O)[C@H](CC(=O)O)NC(=O)[C@H](CO)NC(=O)[C@@H](NC(=O)[C@@H](O)Cc2ccccc2)[C@@H](C)O)C(=O)N[C@@H](CCCNC(=N)N)C(=O)N[C@@H](CCCNC(=N)N)C(=O)N[C@@H](C)C(=O)N1)C(C)C)C(=O)N[C@@H](CC(=O)O)C(=O)N[C@H](C(=O)NCC(=O)N1CCC[C@H]1C(=O)N[C@@H](CO)C(=O)N[C@@H](CO)C(=O)NCC(=O)N[C@@H](C)C(=O)N1CCC[C@H]1C(=O)N1CCC[C@H]1C(=O)N1CCC[C@H]1C(=O)N[C@@H](CO)C(=O)N[C@@H](CCCCNC(=O)CCSCC(=O)NCCOCCOCCOCCOCCOCCOCCOCCOCCOCCOCCOCCOCCC(=O)O[C@H]1CC[C@@]2(C)C(=CC[C@H]3[C@@H]4CC[C@H]([C@H](C)CCCC(C)C)[C@@]4(C)CC[C@@H]32)C1)C(N)=O)[C@@H](C)O` [K40-chol G(6-40), [PLA6, E16K20(lactam), D28, K40(COCH2CH2S-Chol)]G(6-40) amide] (H-[PhLac]TSDYSKYLDERRAKDFVQWLMDTGPSSGAPPPSK(X1)-NH2; lactam 11-15) yielded an IC50 of 312 nM. Moreover, a half-maximal response in test [2] (GLP-1 agonism EC50 (nM), Table 23, standard deviation in ( )) (EC50) required 47 nM.
In turn, `CSCC[C@H](NC(=O)[C@H](CC(C)C)NC(=O)[C@H](Cc1c[nH]c2ccccc12)NC(=O)[C@H](CCC(N)=O)NC(=O)[C@@H](NC(=O)[C@H](Cc1ccccc1)NC(=O)[C@H](CC(=O)O)NC(=O)[C@H](CCC(N)=O)NC(=O)[C@H](C)NC(=O)[C@H](CCCNC(=N)N)NC(=O)[C@H](CCCNC(=N)N)NC(=O)[C@@H]1CCC(=O)NCCCC[C@H](NC(=O)[C@H](CO)NC(=O)[C@H](Cc2ccc(O)cc2)NC(=O)[C@H](CC(=O)O)NC(=O)[C@H](CO)NC(=O)[C@@H](NC(=O)[C@@H](O)Cc2ccccc2)[C@@H](C)O)C(=O)N[C@@H](Cc2ccc(O)cc2)C(=O)N[C@@H](CC(C)C)C(=O)N[C@@H](CC(=O)O)C(=O)N1)C(C)C)C(=O)N[C@@H](CC(=O)O)C(=O)N[C@H](C(N)=O)[C@@H](C)O` [[PLA6, D9, K12E16(Lactam), D28]G(6-29)] (H-[PhLac]TSDYSKYLDERRAQDFVQWLMDT-NH2; lactam 7-11) registered an IC50 in test [1] (setting [3]) of 58.3 ± 3.3 nM. The response in test [2] (setting [5]) was half-maximal at 38.5 ± 7.6 nM (EC50).
Compound `CSCC[C@H](NC(=O)[C@H](CC(C)C)NC(=O)[C@H](Cc1c[nH]c2ccccc12)NC(=O)[C@H](CCC(N)=O)NC(=O)[C@@H](NC(=O)[C@H](Cc1ccccc1)NC(=O)[C@H](CC(=O)O)NC(=O)[C@@H]1CCCCNC(=O)CC[C@H](NC(=O)[C@H](CC(=O)O)NC(=O)[C@H](CC(C)C)NC(=O)[C@H](Cc2ccc(O)cc2)NC(=O)[C@H](CCCCN)NC(=O)[C@H](CO)NC(=O)[C@H](Cc2ccc(O)cc2)NC(=O)[C@H](CCC(=O)O)NC(=O)[C@H](CO)NC(=O)[C@@H](NC(=O)[C@H](Cc2ccccc2)NC(=O)[C@@H](NC(=O)CNC(=O)[C@H](CCC(=O)O)NC(=O)[C@H](C)NC(=O)[C@@H](N)Cc2c[nH]cn2)[C@@H](C)O)[C@@H](C)O)C(=O)N[C@@H](CCCNC(=N)N)C(=O)N[C@@H](CCCNC(=N)N)C(=O)N[C@@H](C)C(=O)N1)C(C)C)C(=O)N[C@@H](CC(=O)O)C(=O)N[C@H](C(N)=O)[C@@H](C)O` [[A2E3, E16K20(Lactam), D28]G(1 ~ 29)] had an IC50 in test [1] (setting [4]) of 129 ± 106 nM. Moreover, the “character of antagonism (partial antagonist, wrapped cell)” value in test [1] (Table 18), in test [1] (Table 19) and in test [1] (Table 20) was “partial” each time. In test [2] (GLP-1 agonism EC50 (nM), Table 18), this compound displayed a 50% effective concentration (EC50) of 0.11 nM.
For the compound `CSCC[C@H](NC(=O)[C@H](CC(C)C)NC(=O)[C@H](Cc1c[nH]c2ccccc12)NC(=O)[C@H](CCC(N)=O)NC(=O)[C@@H](NC(=O)[C@H](Cc1ccccc1)NC(=O)[C@H](CC(=O)O)NC(=O)[C@@H]1CCCCNC(=O)CC[C@H](NC(=O)[C@H](CC(=O)O)NC(=O)[C@H](CC(C)C)NC(=O)[C@H](Cc2ccc(O)cc2)NC(=O)[C@H](CCCCN)NC(=O)[C@H](CO)NC(=O)[C@H](Cc2ccc(O)cc2)NC(=O)[C@H](CC(=O)O)NC(=O)[C@H](CO)NC(=O)[C@@H](NC(=O)[C@H](Cc2ccccc2)OC(=O)[C@@H](NC(=O)CNC(=O)[C@H](CCC(N)=O)NC(=O)[C@@H](N)CO)[C@@H](C)O)[C@@H](C)O)C(=O)N[C@@H](CCCNC(=N)N)C(=O)N[C@@H](CCCNC(=N)N)C(=O)N[C@@H](C)C(=O)N1)C(C)C)C(=O)N[C@@H](CC(=O)O)C(=O)N[C@H](C(N)=O)[C@@H](C)O` [[S2Q3-O-PLA6, D9, E16K20(Lactam), D28] G(2-29)] (H-SQGT[PhLac]TSDYSKYLDERRAKDFVQWLMDT-NH2; lactam 15-19; N-terminus assumed), the IC50 in test [1] (Glucagon antagonism IC50 (nM, inhibit 0.8 nM glucagon), Table 24) is 20.8 ± 3.09 nM. The same compound registered an EC50 in test [2] (GLP-1 agonism EC50 (nM), Table 20) of 45.7 ± 12.3 nM.
For “[PLA6, E16K20(Lactam), C24(20 kDa), D28]G(6-29) ([PhLac]TSDYSKYLDERRAKDFVC(PEG 20 kDa)WLMDT-NH2; lactam 11-15)”, in test [1] (read-out: Glucagon antagonism IC50(nM) (inhibit 0.2-0.8 nM glucagon)), the IC50 fell in the range of 374 to 1460 nM. In addition, the EC50 in test [2] (read-out: GLP-1 agonism EC50, Table 21) fell in the range of 450 to 1840 nM.
In the case of `CSCC[C@H](NC(=O)[C@H](CC(C)C)NC(=O)[C@H](Cc1c[nH]c2ccccc12)NC(=O)[C@H](CCC(N)=O)NC(=O)[C@@H](NC(=O)[C@H](Cc1ccccc1)NC(=O)[C@H](CC(=O)O)NC(=O)[C@H](CCC(N)=O)NC(=O)[C@H](C)NC(=O)[C@H](CCCNC(=N)N)NC(=O)[C@H](CCCNC(=N)N)NC(=O)[C@@H]1CCC(=O)NCCCC[C@H](NC(=O)[C@H](CO)NC(=O)[C@H](Cc2ccc(O)cc2)NC(=O)[C@H](CC(=O)O)NC(=O)[C@H](CO)NC(=O)[C@@H](NC(=O)[C@@H](N)Cc2ccccc2)[C@@H](C)O)C(=O)N[C@@H](Cc2ccc(O)cc2)C(=O)N[C@@H](CC(C)C)C(=O)N[C@@H](CC(=O)O)C(=O)N1)C(C)C)C(=O)N[C@@H](CC(N)=O)C(=O)N[C@H](C(=O)NCC(=O)N1CCC[C@H]1C(=O)N[C@@H](CO)C(=O)N[C@@H](CO)C(=O)NCC(=O)N[C@@H](C)C(=O)N1CCC[C@H]1C(=O)N1CCC[C@H]1C(=O)N1CCC[C@H]1C(=O)N[C@@H](CO)C(N)=O)[C@@H](C)O` [D9, K12E16(Lactam)] (H-FTSDYSKYLDERRAQDFVQWLMNTGPSSGAPPPS-NH2; lactam 7-11; N-terminus assumed), the IC50 in test [1] (Table 13, glucagon antagonist activity, read-out: Glu) was determined as 828 nM. The half-maximal effective concentration (EC50) in test [2] (GLP-1 (nM), Table 13, GLP-1 agonist activity) stood at 119 nM; in test [2] (GLP-1 EC50 (nM), Table 15), 18 nM.
As for `CSCC[C@@H]1NC(=O)[C@H](CC(C)C)NC(=O)[C@H](Cc2c[nH]c3ccccc23)NC(=O)[C@@H](NC(=O)[C@@H](NC(=O)[C@H](Cc2ccccc2)NC(=O)[C@H](CC(=O)O)NC(=O)[C@H](CCC(N)=O)NC(=O)[C@H](C)NC(=O)[C@H](CCCNC(=N)N)NC(=O)[C@H](CCCNC(=N)N)NC(=O)[C@H](CCC(=O)O)NC(=O)[C@H](CC(=O)O)NC(=O)[C@H](CC(C)C)NC(=O)[C@H](Cc2ccc(O)cc2)NC(=O)[C@H](CCCCN)NC(=O)[C@H](CO)NC(=O)[C@H](Cc2ccc(O)cc2)NC(=O)[C@H](CC(=O)O)NC(=O)[C@H](CO)NC(=O)[C@@H](NC(=O)[C@@H](O)Cc2ccccc2)[C@@H](C)O)C(C)C)CCC(=O)NCCCC[C@@H](C(=O)N[C@H](C(N)=O)[C@@H](C)O)NC1=O` (H-[PhLac]TSDYSKYLDERRAQDFVEWLMKT-NH2; lactam 19-23), in test [2] (setting [5]), the EC50 was determined as 289 ± 149 nM.
